According to patent US6835751B2, “Bicyclic amino acids as pharmaceutical agents” (Warner-Dambert Company LLC, priority 1999, dated 2004):
Counter-ions that a name gives are not always drawn.

Assays:
[1] = test system: α2δ subunit; test: radioligand binding assay using [3H]gabapentin and the α2δ subunit; details: [3H]gabapentin radioligand; α2δ subunit from porcine brain tissue
[2] = test system: carrageenan-induced hyperalgesia model; test: Carrageenin-induced hyperalgesia, rat paw pressure test (Randall-Selitto); type: in vivo; details: dosed orally at 30 mg/kg
Procedure: Carrageenin-Induced Hyperalgesia
Nociceptive pressure thresholds were measured in the rat paw pressure test using an analgesimeter (Randall-Selitto method: Randall L. O. and Selitto J. J., “A method for measurement of analgesic activity on inflamed tissue,” Arch. Int. Pharmacodyn., 1957;4:409-419). Male Sprague-Dawley rats (70-90 g) were trained on this apparatus before the test day. Pressure was gradually applied to the hind paw of each rat and nociceptive thresholds were determined as the pressure (g) required to elicit paw withdrawal. A cutoff point of 250 g was used to prevent any tissue damage to the paw. On the test day, two to three baseline measurements were taken before animals were administered 100 μL of 2% carrageenin by intraplantar injection into the right hind paw.
(R)-2-Aza-spiro[4.5]decane-4-carboxylic acid hydrochloride was tested in the above carrageenan-induced hyperalgesia model. The compound was dosed orally at 30 mg/kg, and 1 hour postdose gave a percent of maximum possible effect ([…]) of 53%. At 2 hours postdose, it gave only 4.6% of MPE.

Row | SMILES | α2δ binding affinity [1] | percent of maximum possible effect (APE) ([2]; 1 hour postdose) | % of MPE ([2]; 2 hours postdose)
1 | NC[C@]1(CC(=O)O)C[C@H]2CCC[C@H]2C1 [(1α,3α,5α)(2-Aminomethyl-octahydro-pentalen-2-yl)-acetic Acid Hydrochloride] | 1.58 µM |  | 
2 | NCC1(CC(=O)O)C[C@H]2CCC[C@@H]2C1 (racemic) [(±)-(1α,5β)(2-Aminomethyl-octahydro-pentalen-2-yl)-acetic Acid Hydrochloride] | >10 µM |  | 
3 | NCC1(CC(=O)O)C[C@H]2CCCC[C@@H]2C1 (racemic) [(±)-(1α,6β)(2-Aminomethyl-octahydro-inden-2-yl)-acetic Acid Hydrochloride] | >10 µM |  | 
4 | NC[C@@]1(CC(=O)O)C[C@H]2CCCC[C@H]2C1 [((1α,6α,8β)(2-Aminomethyl-octahydro-inden-2-yl)-acetic Acid Hydrochloride] | >10 µM |  | 
5 | NC[C@@]1(CC(=O)O)C[C@H]2CC[C@H]2C1 [(1α,3β,5α)(3-Aminomethyl-bicyclo[3.2.0]hept-3-yl)-acetic acid hydrochloride] | 0.332 µM |  | 
6 | NC[C@]1(CC(=O)O)C[C@H]2CC[C@H]2C1 [(1α,3α,5α)(3-Aminomethyl-bicyclo[3.2.0]hept-3-yl)-acetic Acid Hydrochloride] | 0.038 µM |  | 
7 | NC[C@]1(CC(=O)O)C[C@H]2CCCC[C@H]2C1 [(1α,6α,8α)(2-Aminomethyl-octahydro-inden-2-yl)-acetic acid hydrochloride] | 0.72 µM |  | 
8 | Cl.O=C(O)[C@H]1CNCC12CCCCC2 [(R)-2-Aza-spiro[4.5]decane-4-carboxylic acid hydrochloride] |  | 53% | 4.6%
9 | NCC1(CC(=O)O)C[C@H]2CC[C@@H]2C1 (racemic) [(±)-(1α,5β)(3-aminomethyl-bicyclo[3.2.0]hept-3-yl)-ascetic Acid Hydrochloride] | 2.86 µM |  | 
